Source: patent publication US6794397B2, “Substituted nicotinamides and analogs as activators of caspases and inducers of apoptosis and the use thereof” (Cytovia, Inc., priority 2000, dated 2004)
Read-outs that look alike come from different tables or passages of the source.

What was measured:
[1] = tested on: ZR75-1; assay: Caspase cascade activation assay (N-(Ac-DEVD)-N'-ethoxycarbonyl-R110 fluorogenic substrate) in ZR75-1 cells; format: cell-based, Human; settings: for EC50 / EC50 (nM) caspase potency: sigmoidal dose-response; for EC50: read-out: EC50 (nM) caspase potency; for Caspase activity Ratio: ratio of net RFU of test compound to control, 0.16 to 10 μM final
Method: (§1) Human breast cancer cell lines T47D and ZR75-1 were grown according to media component mixtures designated by American Type Culture Collection +10% FCS (Invitrogen Corporation, Life Technologies Division), in a 5% CO2 −95% humidity incubator at 37° C. T47D and ZR75-1 cells were maintained at a cell density between 30 and 80% confluency at a cell density of 0.1 to 0.6×10^6 cells/ml. Cells were harvested at 600xg and resuspended at 0.65×10^6 cells/ml into appropriate media +10% FCS. An aliquot of 45 μl of cells was added to a well of a 96-well microtiter plate containing 5 μl of a 10% DMSO in RPMI-1640 media solution containing 1.6 to 100 μM of N-(4-methoxy-2-nitrophenyl)-3-pyridinecarboxamide or other test compound (0.16 to 10 μM final). An aliquot of 45 μl of cells was added to a well of a 96-well microtiter plate containing 5 μl of a 10% DMSO in RPMI-1640 media solution without test compound as the control sample. The samples were mixed by agitation and then incubated at 37 C. for 24 h in a 5% CO2 −95% humidity incubator. After incubation, the samples were removed from the incubator and 50 μl of a solution containing 20 μM of N-(Ac-DEVD)-N′-ethoxycarbonyl-R110 (SEQ ID NO: 1) fluorogenic substrate (Cytovia, Inc.; WO99/18856), 20% sucrose (Sigma), 20 mM DTT (Sigma), 200 mM NaCl (Sigma), 40 mM Na PIPES buffer pH 7.2 (Sigma), and 500 μg/ml lysolecithin (Calbiochem) was added. The samples were mixed by agitation and incubated at room temperature. Using a fluorescent plate reader (Model 1420 Wallac Instruments), an initial reading (T=0) was made approximately 1-2 min after addition of the substrate solution, employing excitation at 485 nm and emission at 530 nm, to determine the background fluorescence of the control sample. After the 3 h incubation, the samples were read for fluorescence as above (T=3 h).
(§2) The Relative Fluorescence Unit values (RFU) were used to calculate the sample readings as follows:
(§3) RFU(T=3h)−Control RFU(T=0)=Net RFU(T=3h).
(§4) The activity of caspase cascade activation was determined by the ratio of the net RFU value for N-(4-methoxy-2-nitrophenyl)-3-pyridinecarboxamide or other test compound to that of control samples. The EC50 (nM) was determined by a sigmoidal dose-response calculation (Prism 2.0, GraphPad Software Inc.).

[2] = tested on: T47D; assay: Caspase cascade activation assay (N-(Ac-DEVD)-N'-ethoxycarbonyl-R110 fluorogenic substrate) in T47D cells; format: cell-based, Human; settings: 24 h incubation; for EC50 / EC50 (nM) caspase potency: sigmoidal dose-response; for EC50: read-out: EC50 (nM) caspase potency; for Caspase activity Ratio: ratio of net RFU of test compound to control, 0.16 to 10 μM final
Method: as §1, §2, §3, §4

[3] = Homo sapiens, ZR-75-1, 24 h incubation

Molecule	EC50 ([1]; 24 h incubation) [nM]	EC50 [2] [nM]	EC50 [1, 3] [nM]	EC50 ([2]; Homo sapiens) [nM]	EC50 (nM) caspase potency [2]	EC50 (nM) caspase potency ([1]; 24 h incubation)	Caspase activity Ratio ([1]; 24 h incubation)	Caspase activity Ratio [2]
O=C(Nc1ccc(C(F)(F)F)cc1[N+](=O)[O-])c1ccc(Cl)nc1 [Example 1, 6-Chloro-N-(2-nitro-4-trifluoromethylphenyl)-3-pyridinecarboxamide]			729	2970			3.6	8.9
O=C(Nc1ccc(F)cc1[N+](=O)[O-])c1ccc(Cl)nc1 [Example 3, 6-Chloro-N-(4-fluoro-2-nitrophenyl)-3-pyridinecarboxamide]			4620		Inactive		2.1	Inactive
COc1cc([N+](=O)[O-])c(NC(=O)c2ccc(Cl)nc2)cc1Br [Example 4, 6-Chloro-N-(3-bromo-4-methoxy-6-nitrophenyl)-3-pyridinecarboxamide]			4030		Inactive		3.2	Inactive
COc1ccc(NC(=O)c2cccnc2Cl)c([N+](=O)[O-])c1 [Example 6, 2-Chloro-N-(4-methoxy-2-nitrophenyl)-3-pyridinecarboxamide]					Inactive	Inactive	Inactive	Inactive
COc1ccc(NC(=O)c2ccc(Cl)nc2)cc1 [Example 11, 6-Chloro-N-(4-methoxyphenyl)-3-pyridinecarboxamide]					Inactive	Inactive	Inactive	Inactive
O=C(Nc1ccc([N+](=O)[O-])cc1[N+](=O)[O-])c1ccc(Cl)nc1 [Example 17, 6-Chloro-N-(2,4-dinitrophenyl)-3-pyridinecarboxamide]					Inactive	Inactive	Inactive	Inactive
O=C(Nc1cc(F)c(F)cc1[N+](=O)[O-])c1ccc(Cl)nc1 [Example 19, 6-Chloro-N-(4,5-difluoro-2-nitrophenyl)-3-pyridinecarboxamide]			6880	3550			3.8	2.7
COc1ccc(NC(=O)c2ccc(Cl)nc2)c(C)c1 [Example 20, 6-Chloro-N-(4-methoxy-2-methylphenyl)-3-pyridinecarboxamide]					Inactive	Inactive	Inactive	Inactive
CCOc1ccc(NC(=O)c2ccc(F)nc2)c([N+](=O)[O-])c1 [Example 22, 6-Fluoro-N-(4-ethoxy-2-nitrophenyl)-3-pyridinecarboxamide]			295	466			6.6	7.6
O=C(Nc1ccc(C(=O)c2ccccc2)cc1[N+](=O)[O-])c1ccc(Cl)nc1 [Example 24, 6-Chloro-N-(4-benzoyl-2-nitrophenyl)-3-pyridinecarboxamide]					Inactive	Inactive	Inactive	Inactive

Further lines, with some results ahead:

EC50 ([1]; 24 h incubation) [nM]	EC50 [2] [nM]	EC50 [1, 3] [nM]	EC50 ([2]; Homo sapiens) [nM]	EC50 (nM) caspase potency [2]	EC50 (nM) caspase potency ([1]; 24 h incubation)	Molecule	Caspase activity Ratio ([1]; 24 h incubation)	Caspase activity Ratio [2]
3840	6750					4-Chloro-N-(4-ethoxy-2-nitrophenyl)-benzoylamide [Example 18]	5.1	3.0
		329	587			O=C(Nc1ccc(Cl)cc1[N+](=O)[O-])c1ccc(Cl)nc1 [Example 2, 6-Chloro-N-(4-chloro-2-nitrophenyl)-3-pyridinecarboxamide]	5.8	7.8
				Inactive	Inactive	COc1ccc(NC(=O)c2ccc(Cl)nc2)c(OC)c1 [Example 5, 6-Chloro-N-(2,4-dimethoxyphenyl)-3-pyridinecarboxamide]	Inactive	Inactive
		230	593			COc1ccc(NC(=O)c2ccc(Cl)nc2)c([N+](=O)[O-])c1 [Example 7, 6-Chloro-N-(4-methoxy-2-nitrophenyl)-3-pyridinecarboxamide]	2.7	8.1
		488	920			Cc1ccc(NC(=O)c2ccc(Cl)nc2)c([N+](=O)[O-])c1 [Example 9, 6-Chloro-N-(4-methyl-2-nitrophenyl)-3-pyridinecarboxamide]	5.0	5.4
				Inactive	Inactive	O=C(Nc1ccccc1[N+](=O)[O-])c1ccc(Cl)nc1 [Example 10, 6-Chloro-N-(2-nitrophenyl)-3-pyridinecarboxamide]	Inactive	Inactive
				Inactive	Inactive	COc1ccc(NC(=O)c2cc(Cl)nc(Cl)c2)c([N+](=O)[O-])c1 [Example 12, 2,6-Dichloro-N-(4-methoxy-2-nitrophenyl)-4-pyridinecarboxamide]	Inactive	Inactive
				Inactive	Inactive	COc1ccc(NC(=O)c2cnc(Cl)nc2C(F)(F)F)c([N+](=O)[O-])c1 [Example 13, 2-Chloro-4trifluoromethyl-N-(4methoxy-2-nitrophenyl)-5-pyrimidinecarboxamide]	Inactive	Inactive
				Inactive	Inactive	COc1ccc(NC(=O)c2ccncc2)c([N+](=O)[O-])c1 [Example 14, N-(4-methoxy-2-nitrophenyl)-4-pyridinecarboxamide]	Inactive	Inactive
				Inactive	Inactive	COc1ccc(NC(=O)c2ccc(Cl)nc2Cl)c([N+](=O)[O-])c1 [Example 15, 2,6-Dichloro-N-(4-methoxy-2-nitrophenyl)-3-pyridinecarboxamide]	Inactive	Inactive
				Inactive	Inactive	COc1ccc(NC(=O)c2cnc(Cl)c(Cl)c2)c([N+](=O)[O-])c1 [Example 16, 5,6-Dichloro-N-(4-methoxy-2-nitrophenyl)-3-pyridinecarboxamide]	Inactive	Inactive
		4670		Inactive		N#Cc1ccc(NC(=O)c2ccc(Cl)nc2)c([N+](=O)[O-])c1 [Example 21, 6-Chloro-N-(4-cyano-2-nitrophenyl)-3-pyridinecarboxamide]	2.3	Inactive
171	608					O=C(Nc1ccc(OC(F)(F)F)cc1[N+](=O)[O-])c1ccc(Cl)nc1 [Example 23, 6-Chloro-N-(2-nitro-4-tifluoromethoxyphenyl)-3-pyridinecarboxamide]	9.9	7.2
